Laboratory results published in patent US7652031B2, “Compounds which mimic the chemical and biological properties of discodermolide” (priority 2001, dated 2010).
Like-named read-outs stand apart in the source and are kept apart here.

What was measured:
MCF-7 cells = settings: cited from earlier work
A549 cells [1] = test: Immunofluorescence (microtubules, DNA), A549 cells; assay type: cell-based, human
Protocol: In addition, cells were stained with Hoescht solution (Sigma; 1:2.5 dilution) for 15 min after the secondary antibody wash. Slides were analyzed using a Zeiss Axiophot microscope (rhodamine and DAPI filters) at ×100 magnification.

A549 cells [2] = test: Flow cytometry (cell cycle), A549 cells; assay type: cell-based, human; settings: 24 h
murine splenocytes [3] = settings: in vitro; cited from earlier work
SKOV3 cells = test: Cytotoxicity assay, SKOV3 cells; assay type: cell-based, human
Protocol: The SKOV3 ovarian carcinoma cell line was obtained from Dr. V. Ling and was maintained as described in McDaid, H. M., et al., “Structure-activity profiles of eleutherobin analogs and their cross-resistance in Taxol-resistant cell lines”, Cancer Chemother. Pharmacol., 1999, 44, 131-137.
(§1) A549 cells were seeded in triplicate at a density of 1×10^4 cells/ml in 6-well plates and allowed to attach for 24 h. After incubation with various drug concentrations for 72 h, adherent cells were trypsinized and counted (Coulter Counter model Z1; Coulter Corp., Miami, Fla.), and the IC50 was determined. SKOV3 cells were seeded at a density of 2×10^4 cells/ml and the above procedure followed.

tubulin [4] = settings: cited from earlier work
[5] = system: microtubule protein (MTP); test: In vitro tubulin polymerization assay (turbidity at 350 nm); assay type: biochemical, calf; settings: for induction of tubulin assembly in the absence of GTP / extent of polymerization after 100 min / initial slope (0-5 min), slope for (+)-discodermolide assigned 1.0: 10 μM; for induction of tubulin assembly in the absence of GTP: 37° C.; for extent of polymerization after 100 min: turbidity; for initial slope (0-5 min), slope for (+)-discodermolide assigned 1.0: first 5 min, relative to (+)-discodermolide; for stability of the microtubules formed against calcium-induced depolymerization: microtubules formed in the presence of the compound
Protocol: (§2) All drugs were dissolved in sterile DMSO and stored at −20° C. Microtubule protein (MTP) was purified by 2 cycles of temperature-dependent assembly-disassembly from calf brain and stored in liquid nitrogen. See, for example, Welsenberg, R. C., “Microtubule formation in vitro in solutions containing low calcium concentrations”, Science, 1972, 177, 1104-1105.
Microtubule polymerization was evaluated by recording the change in turbidity of MTP at 350 nm for 100 min in a spectrophotometer (UVIKON, Research Instruments Int., San Diego, Calif.). See, for example, Shelanski, M. L., et al., “Microtuble assembly in the absence of added nucleotides”, Proc. Natl. Acad. Sci. USA, 1973, 70, 765-768. Purified MTP was diluted in assembly buffer containing 0.1 M MES, I mM EGTA, 0.5 mM MgCl2, and 3 M glycerol (pH 6.6) to a final concentration of 1 mg/ml. All compounds were evaluated at a concentration of 10 μM at 37° C. in the absence of GTP. The changes in absorption that occurred during the first 5 min were used to plot initial slopes from the linear portion of each curve in order to compare the initial activity of each compound.
The activities of Taxol, (+)-discodermolide, and several structural analogs were determined in the foregoing in vitro tubulin polymerization assay that measures changes in absorbance that correlate with the extent of microtubule polymerization. It will be appreciated that microtubule polymerization involves both nucleation (initiation) and elongation steps. The initial rates of polymerization reflect the nucleation process. See, for example, Gaskin, F., et al. “Turbidimetric studies of the in vitro assembly and disassembly of porcine neurotubules”, J. Mol. Biol., 1974, 89, 737-758.

microtubules = test: Drug binding competition assay ([3H]Taxol binding to preformed microtubules); design: species or system calf
Protocol: as §2
The assay was performed using methods described in Bollag, D. M., et al., “Epothilones, a new class of microtubule-stabilizing agents with a Taxol-like mechanism of action”, Cancer-Res., 1995, 55, 2325-2333 and He, L., et al., “A common pharmacophore for Taxol and the epothilones based on the biological activity of a taxane molecule lacking a C-13 side chain”, Biochemistry, 2000, 39, 3972-3978. MTP (0.4 mg/ml) was incubated at 37° C. with 1 mM GTP and […] Taxol for 20 min to induce the assembly of microtubules. One hundred nanomolar [^3H]Taxol (specific activity: 19.3 Ci/mmol) and the indicated concentration of the competing agent were added simultaneously to the preformed microtubules. The mixtures were further incubated at 37° C. for 30 min to allow binding of [^3H]Taxol. Microtubules were collected by ultracentrifugation (100,000 g, 1 hr, 30° C.) and the radioactivity measured using a liquid scintillation counter. The inhibition of binding of [^3H]Taxol to microtubules was expressed as a percentage compared to the control (100%).

murine splenocytes [6] = settings: in vitro, cited from earlier work
tubulin [7] = settings: cited from earlier work; remark: listed apart in the source
[8] = system: microtubule protein (MTP); test: Electron microscopy of microtubules from the in vitro polymerization assay; assay type: biochemical, calf; settings: for Average Polymer Length (μm): microtubule lengths after assembly, minimum of 50 microtubules
Protocol: Aliquots (50 μL) were taken from the in vitro polymerization assay at the end of the reaction and placed onto 300-mesh carbon-coated, Formavar-treated copper grids. Samples were then stained with 20 μL of 2% uranyl acetate and viewed with a JEOL model 100CX electron microscope. To determine the lengths of the microtubules, electron micrograph negatives were scanned and then analyzed using IP Lab software. Measurements were performed on negatives at ×10000 and ×50000, with a minimum of 50 microtubules measured for each compound.
The microtubule protein from each in vitro assay was examined by electron microscopy to confirm that normal microtubules were formed in the presence of the compounds. In all cases, except for the DMSO control, microtubules were observed. […] Table 1 provides a comparison of microtubule lengths after assembly with Taxol, discodermolide and analogs I-i, I-ii, I-iii, and I-iv.

[9] = system: human carcinoma cell lines; settings: in cells; cited from earlier work
A549 cells [10] = test: Cytotoxicity assay, A549 cells; assay type: cell-based, human
Protocol: The A549 lung carcinoma cell line was maintained as described in Kavallaris, M., et al., “Taxol-resistant epithelial ovarian tumors are associated with altered expression of specific β-tubulin isotypes”, J. Clin. Invest., 1997, 100, 1282-1293.
as §1

F1 recipient mice = settings: cited from earlier work
[11] = (+)-discodermolide 25 nM, analogs at different cytotoxic concentrations

C=C/C=C\[C@H](C)[C@H](OC(N)=O)[C@@H](C)[C@H](O)[C@@H](C)C/C(C)=C\[C@H](C)[C@@H](O)[C@@H](C)/C=C\[C@@H](O)C[C@@H]1OC(=O)[C@H](C)[C@@H](O)[C@H]1C (single isomer, unassigned) [(+)-discodermolide]
potency at inducing microtubule bundles compared to Taxol (MCF-7 cells): more potent | location of microtubule bundles in the cells (A549 cells [1]): at the periphery of the cells | microtubule bundles and condensed nuclear DNA (A549 cells [1]; [11]): Microtubule bundles and condensed nuclear DNA appeared | concentrations at which bundles and condensed DNA were not seen (A549 cells [1]; effect seen at 25 nM and above): below 12 nM | hypodiploid population of cells (apoptosis) (A549 cells [2]; 25 nM): increase in the hypodiploid population of cells | cell cycle block in G2/M phase (A549 cells [2]; [11]): blocked in the G2/M phase of the cell cycle | suppression of the two-way mixed-lymphocyte reaction (murine splenocytes [3]): suppresses | IC50 (SKOV3 cells; Homo sapiens, SK-OV-3, 72 h, read-out: SKOV3 (IC50(μm))): 31.3 ± 6.8 nM | less active in SKOV3 compared to A549 cells (SKOV3 cells; SKOV3 vs A549): approximately 8 fold | potency at nucleating tubulin assembly compared to Taxol (tubulin [4]): more potent | induction of tubulin assembly in the absence of GTP [5]: induced tubutin assembly in the absence of GTP | extent of polymerization after 100 min [5]: essentially the same | initial slope (0-5 min), slope for (+)-discodermolide assigned 1.0 [5]: 1.0 | level of polymerization by protein content in the supernatant ([5]; end of assay, 100,000 g for 30 min): comparable | stability of the microtubules formed against calcium-induced depolymerization [5]: stable against calcium-induced depolymerzation | inhibition of binding of [3H]Taxol to microtubules (microtubules; 1 μM competing agent): very similar inhibition | inhibition of binding of [3H]Taxol to microtubules (microtubules; 10 μM competing agent): approximately 45% | inhibition of binding of [3H]Taxol to microtubules (microtubules; 100 μM competing agent): ~95% | suppression of concanavalin A-induced mitogenesis (murine splenocytes [6]): suppresses | cytotoxicity associated with the suppression (murine splenocytes [6]; mixed-lymphocyte reaction and mitogenesis assays): no associated cytotoxicity | binding affinity compared with Taxol (tubulin [7]; listed as 1): much higher | binding affinity compared with Taxol (tubulin [7]; listed as (+)-discoderrnolide): higher affinity for tubulin | microtubule length compared with GTP or Taxol ([8]; electron microscopy): much shorter microtubules | Average Polymer Length (μm) [8]: 0.78 ± 0.3 μm | cytotoxicity compared with Taxol [9]: less cytotoxic than Taxol | inhibition of the proliferation of A549 cells (A549 cells [10]): inhibited the proliferation of A549 cells | IC50 (A549 cells [10]; Homo sapiens, A549, 72 h, read-out: A549 (IC50(μm))): 3.8 nM | potency in graft-vs.-host splenomegaly response (F1 recipient mice; compared with cyclosporin A and FK506): intermediate between those of cyclosporin A and FK506 | suppression of graft-vs.-host splenomegaly response (F1 recipient mice; injection of parental splenocytes into F1 recipient mice): suppresses

CC(=O)O[C@H]1C(=O)[C@@]2(C)[C@H]([C@H](OC(=O)c3ccccc3)[C@]3(O)C[C@H](OC(=O)[C@H](O)[C@@H](NC(=O)c4ccccc4)c4ccccc4)C(C)=C1C3(C)C)[C@]1(OC(C)=O)CO[C@@H]1C[C@@H]2O [Taxol]
location of microtubule bundles in the cells (A549 cells [1]): throughout the cells | induction of tubulin assembly in the absence of GTP [5]: induced tubutin assembly in the absence of GTP | extent of polymerization after 100 min [5]: essentially the same | initial slope (0-5 min), slope for (+)-discodermolide assigned 1.0 [5]: 0.28 | stability of the microtubules formed against calcium-induced depolymerization [5]: stable against calcium-induced depolymerzation | inhibition of binding of [3H]Taxol to microtubules (microtubules; 1 μM competing agent): very similar inhibition | inhibition of binding of [3H]Taxol to microtubules (microtubules; 10 μM competing agent): approximately 45% | inhibition of binding of [3H]Taxol to microtubules (microtubules; 100 μM competing agent): 80% | Average Polymer Length (μm) [8]: 3.3 ± 1.2 μm
